The text below walks through data of publication PMC10609143, “Inhibitory Mechanisms of Lekethromycin in Dog Liver Cytochrome P450 Enzymes Based on UPLC-MS/MS Cocktail Method” (Molecules, 2023).

What all share (experiment): Irreversible inhibition (IC50 shift) in dog liver microsomes
Holding throughout (type): in vitro ADME
(In general: Microsomes from liver hold many membrane-bound enzymes, among them those of drug oxidation.)

The subject of one series is CYP2A6. As for the experimental part: (§1) To characterize the reversible or irreversible mechanism of CYP450 inhibition via LKMS, the shifted IC50 values were used to determine whether the inhibition of LKMS on CYP450 was time-dependent. […] The above mixture was then incubated for another 30 min in the presence of NADPH. The concentrations of LKMS were designated as 0.2, 2, 4, 6, 8, 10, 20, 40, and 80 μM, and the concentration of each probe substrate was based on each Km value. The concentrations of the probe substrates of CYP2A6, CYP2B6, and CYP2D6 were at single concentrations approximating their Km values.

In a further series the target is T1, CYP2D6 (Canis lupus familiaris, UniProt Q29473).
T1 construct: from tissue; host or cells: dog liver microsomes (DLM)
T1 sequence (Q29473 1-500): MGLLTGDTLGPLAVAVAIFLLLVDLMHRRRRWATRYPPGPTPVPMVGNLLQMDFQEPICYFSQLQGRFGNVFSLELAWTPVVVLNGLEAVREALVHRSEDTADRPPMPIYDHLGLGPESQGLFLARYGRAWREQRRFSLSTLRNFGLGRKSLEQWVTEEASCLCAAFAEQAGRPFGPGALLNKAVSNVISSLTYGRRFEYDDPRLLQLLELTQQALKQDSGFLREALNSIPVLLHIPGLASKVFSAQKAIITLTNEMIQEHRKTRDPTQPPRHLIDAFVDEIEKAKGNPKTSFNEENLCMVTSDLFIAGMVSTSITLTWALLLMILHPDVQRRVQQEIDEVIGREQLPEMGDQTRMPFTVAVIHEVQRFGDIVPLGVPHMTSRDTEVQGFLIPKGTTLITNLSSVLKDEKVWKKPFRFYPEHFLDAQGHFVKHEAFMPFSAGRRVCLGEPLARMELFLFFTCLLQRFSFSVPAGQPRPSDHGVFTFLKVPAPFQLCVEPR
As for the experimental part:
as §1

The next series deals with T2, CYP2B6 (Canis lupus familiaris, UniProt P24460).
T2 construct: from tissue; host or cells: dog liver microsomes (DLM)
T2 sequence (P24460 1-494): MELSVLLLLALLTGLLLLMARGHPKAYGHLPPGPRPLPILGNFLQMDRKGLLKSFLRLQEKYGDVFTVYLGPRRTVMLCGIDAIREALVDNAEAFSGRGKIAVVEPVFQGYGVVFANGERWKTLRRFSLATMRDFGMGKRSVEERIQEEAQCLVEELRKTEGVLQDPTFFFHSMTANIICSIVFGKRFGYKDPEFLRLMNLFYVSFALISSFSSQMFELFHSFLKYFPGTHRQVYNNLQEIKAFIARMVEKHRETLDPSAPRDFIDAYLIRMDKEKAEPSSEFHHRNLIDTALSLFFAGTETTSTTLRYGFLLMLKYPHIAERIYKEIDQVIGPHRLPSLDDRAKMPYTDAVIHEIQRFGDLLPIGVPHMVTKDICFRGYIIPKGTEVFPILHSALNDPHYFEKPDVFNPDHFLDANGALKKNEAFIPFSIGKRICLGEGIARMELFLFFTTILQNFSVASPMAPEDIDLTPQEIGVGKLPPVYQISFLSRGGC
As for the experimental part:
as §1

Consider Lekethromycin [LKMS], for which the “IC50 fold-shift, Shift Ratio (−NADPH/+NADPH)” value with CYP2A6 (CYP2A6, 30 min preincubation at 37 °C with and without NADPH) worked out at 1.29; on CYP2D6 (CYP2D6, 30 min preincubation at 37 °C with and without NADPH), 1.10; at CYP2B6 (CYP2B6, 30 min preincubation at 37 °C with and without NADPH), 0.88. Moreover, the Time-dependent inhibition result in the series with CYP2A6 (CYP2A6, judged from IC50 fold-shift <1.5) was “might not be a time-dependent inhibitor”; at CYP2D6 (CYP2D6, judged from IC50 fold-shift <1.5) it was “might not be a time-dependent inhibitor”; at CYP2B6 (CYP2B6, judged from IC50 fold-shift <1.5), “might not be a time-dependent inhibitor”.
